Measured values taken from patent EP3981864A1, “DETERGENT COMPOSITION” (priority 2020, dated 2022).

Tests used:
[1] = biological target: T1, Arabidopsis thaliana αDOX (SEQ ID NO: 3), fatty acid alpha-dioxygenase, Q9SGH6, variant with N-terminal His-tag, MBP tag and TEV site SEQ ID NO: 253 (Arabidopsis thaliana, UniProt Q9SGH6); experiment: Alpha-dioxygenase activity assay (oxygen consumption, TON); format: biochemical; details: fatty acid 100 µM, enzyme 6 ppm, 50 mM HEPES pH 9.0, 37°C; initial rate of oxygen consumption / enzyme concentration
T1 construct: His-tag (N); MBP tag (N); TEV protease cleavage site (N); made in house; host or cells: Escherichia coli BL21 (DE3), modified pET28a
T1 sequence (Q9SGH6 1-639): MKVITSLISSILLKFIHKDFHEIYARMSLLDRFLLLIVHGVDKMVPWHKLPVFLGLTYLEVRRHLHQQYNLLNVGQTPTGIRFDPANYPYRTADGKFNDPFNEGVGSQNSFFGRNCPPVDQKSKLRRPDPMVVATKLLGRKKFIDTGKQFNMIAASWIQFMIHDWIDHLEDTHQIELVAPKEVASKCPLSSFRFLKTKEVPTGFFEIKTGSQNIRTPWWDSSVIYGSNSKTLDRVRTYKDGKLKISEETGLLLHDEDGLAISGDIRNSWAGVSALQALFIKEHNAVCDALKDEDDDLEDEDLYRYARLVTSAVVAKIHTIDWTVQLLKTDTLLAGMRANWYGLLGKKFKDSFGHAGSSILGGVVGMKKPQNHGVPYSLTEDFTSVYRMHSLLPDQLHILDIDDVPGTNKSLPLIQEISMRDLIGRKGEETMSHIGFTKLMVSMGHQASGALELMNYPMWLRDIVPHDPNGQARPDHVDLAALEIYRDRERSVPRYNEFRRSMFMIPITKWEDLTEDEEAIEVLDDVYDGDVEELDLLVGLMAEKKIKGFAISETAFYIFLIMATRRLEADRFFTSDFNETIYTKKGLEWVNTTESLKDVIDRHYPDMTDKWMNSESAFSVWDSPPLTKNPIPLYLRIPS
Excerpt: Arabidopsis thaliana αDOX (SEQ ID NO: 3) is a fatty acid alpha-dioxygenase that converts fatty acids into the corresponding 2-hydroperoxy fatty acids and is included as an example of the present invention. A codon optimized gene (SEQ ID NO: 252) encoding for an alpha-dioxygenase variant was designed and synthesized by Genscript. After synthesis, the gene was cloned into a modified version of pET28a, such as the final plasmid encoded for a αDOX variant including an N-terminal amino acid sequence containing a His-tag, an MBP tag, and a TEV protease cleavage site (SEQ ID NO: 253). For heterologous expression, Escherichia coli BL21 (DE3) cells were transformed with the recombinant plasmid and a single colony was inoculated into LB medium containing kanamycin (50 mg/L). A pre-starter culture was then inoculated into flasks containing TB Media supplemented with kanamycin (50 mg/L) and incubated at 37 °C. At an OD600nm about 4, IPTG (final concentration 0.1 mM) and 5-aminolevulinic acid (final concentration 0.5 mM) were added to the culture and further incubated at 16 °C for 16 h. Cells were harvested by centrifugation and the pellet was lysed. After centrifugation, the supernatant was collected, and the protein was purified by one-step purification using Ni-NTA affinity chromatography and standard protocols known in the art. The protein was stored in 1×PBS buffer containing 10% Glycerol and at pH 7.4. The purified enzyme was stored at -80 °C until use.
Reactions with alpha-dioxygenases were performed as follows. An aliquot of fatty acid in ethanol (final concentration 100 µM) was resuspended in buffer (50 mM HEPES at pH 9.0) in a scintillation vial. The reaction was started by addition of enzyme (final concentration 6 ppm). The reaction was incubated for up to 10 minutes at 37°C with 200 rpm agitation and the conversion was monitored using an oxygen sensor. The TON (in s-1) were calculated as the ratio between the initial rate of oxygen consumption (in µM/s) and the concentration of enzyme (in µM). […]

[2] = system: Mycolicibacterium fortuitum αDOX (SEQ ID NO: 7), fatty acid alpha-dioxygenase, K0VMX8, N-terminal His-tag variant SEQ ID NO: 261; experiment: as above; format: biochemical; details: fatty acid 100 µM, enzyme 6 ppm, 50 mM HEPES pH 9.0, 37°C; initial rate of oxygen consumption / enzyme concentration
Excerpt: Mycolicibacterium fortuitum αDOX (SEQ ID NO: 7) is a fatty acid alpha-dioxygenase that converts fatty acids into the corresponding 2-hydroperoxy fatty acids and is included as an example of the present invention. A codon optimized gene (SEQ ID NO: 260) encoding for an alpha-dioxygenase variant (SEQ ID NO: 261), including an N-terminal amino acid sequence containing a His-tag was designed and synthesized by Genscript. After gene synthesis, the protein was expressed and purified. In brief, the complete synthetic gene sequence was subcloned into a pET30a vector using the NdeI/HindIII cloning sites. For heterologous expression, Escherichia coli BL21 (DE3) cells were transformed with the recombinant plasmid and a single colony was inoculated into LB medium containing kanamycin (50 mg/L). A pre-starter culture was then inoculated into flasks containing Magic Media (Thermo Fisher, Catalog # K6803) supplemented with kanamycin (50 mg/L) and incubated at 16 °C for 72 h. At an OD600nm = 0.5 - 1.0, 5-aminolevulinic acid (final concentration 0.5 mM) was added. Cells were harvested by centrifugation at 5000 rpm and 4°C and the pellet was lysed using a bacterial cell lysis buffer (B-PER - Themo Fisher, Waltham, MA). After centrifugation, the supernatant was collected, and the protein was purified by one-step purification using HisPur™ Ni-NTA Spin Columns (Thermo Scientific, Catalog # 88226) and standard protocols known in the art. The protein was concentrated using a 10 kDa MW cutoff Amicon Ultra centrifugal filter unit (Millipore Sigma, Catalog# UFC901024), followed by desalting using a disposable PD-10 […], 500 mM NaCl, and 10% Glycerol at pH 8.0. The purified enzyme was stored at -80 °C until use.
Reactions with alpha-dioxygenases were performed as follows. […] The reaction was incubated for up to 10 minutes at 37°C with 200 rpm agitation and the conversion was monitored using an oxygen sensor. The TON (in s-1) were calculated as the ratio between the initial rate of oxygen consumption (in µM/s) and the concentration of enzyme (in µM). […]

With `CCCCCCCCCCCCCCCCCC(=O)O` [Stearic Acid] the “Stearic Acid, TON” value [1] was 0.47 s⁻¹ and the “Stearic Acid, TON” value [2] was 1.66 s⁻¹.

In the case of `CCCCCCCC/C=C\CCCCCCCC(=O)O` [Oleic Acid], the “Oleic Acid, TON” value [1] is reported as 0.14 s⁻¹ and the “Oleic Acid, TON” value [2] is reported as 0.00 s⁻¹.

For `CCCCCCCCCCCCCCCC(=O)O` [Palmitic Acid], the “Palmitic Acid, TON” value [1] was 1.01 s⁻¹ and the “Palmitic Acid, TON” value [2] was 0.00 s⁻¹.
